{"source": "patent US6914045B2", "about": "“Glycopeptide antibiotics” (Wyeth Holdings Corporation, priority 2001, dated 2005)", "key": {"Enterococcus sp.": {"system": "Enterococcus sp.", "experiment": "in vitro antibacterial evaluation, MIC by broth dilution", "format": "cell-based", "details": "broth dilution, 18 hours at 35° C.", "in_short": "(§1)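 Broth dilution per NCCLS standard M7-A2 in Muller-Hinton II […], with an inoculum of 5×10^5 CFU/mL and antibiotic spanning 64-0.06 μg/mL. The MIC is the lowest concentration that inhibits growth of the organism.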"}, "Staphylococcus sp.": {"system": "Staphylococcus sp.", "experiment": "in vitro antibacterial evaluation, MIC by broth dilution", "format": "cell-based", "details": "broth dilution, 18 hours at 35° C.", "in_short": "as §1"}, "Streptococcus sp.": {"system": "Streptococcus sp.", "experiment": "in vitro antibacterial evaluation, MIC by broth dilution", "format": "cell-based", "details": "broth dilution, 18 hours at 35° C.", "in_short": "as §1"}, "[1]": {"system": "Staphylococcus aureus-SMITH (GC 4543)", "experiment": "acute lethal infection in mice", "format": "in vivo", "details": "acute lethal infection, female CD-1 mice, intraperitoneal challenge, intravenous 30 min. after infection, 7 day survival", "in_short": "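ED50 from 7 day survival ratios pooled over 3 separate tests. Female CD-1 mice, 20+/−2 gm, ip bacterial challenge (trypticase soy broth or hog gastric mucin) lethal to untreated controls in 24-48 hr; iv dosing 30 min after infection in saline or 5% dextrose, n=5/dose.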"}, "[2]": {"experiment": "clinical pathology (serum clinical chemistry) in mice", "format": "in vivo", "details": "CD-1 mice, 20 mg/kg intravenously daily for 9 days, sera day 10", "description": "20-day-old CD-1 mice were divided into a vehicle control group (5 mice) and a treatment group (5 mice). Samples of glycopeptide antibiotics were administered at 20 mg/kg intravenously daily for 9 days."}, "[3]": {"experiment": "anatomic pathology (histopathology of heart and kidney) in mice", "format": "in vivo", "details": "CD-1 mice, 20 mg/kg intravenously daily for 9 days, necropsy day 10, microscopic histopathology", "description": "Samples of tissues from necropsied mice were formalin-fixed, paraffin-embedded, sectioned, stained with hematoxylin and eosin, and examined microscopically. Histopathologic findings were recorded. These findings were subjectively graded on a scale corresponding to slight, mild, moderate, marked and severe as compared to untreated controls."}, "Escherichia coli": {"system": "Escherichia coli", "experiment": "in vitro antibacterial evaluation, MIC by broth dilution", "format": "cell-based", "details": "18 hours at 35° C."}}, "data": [{"molecule": "COc1ccc2cc(COCC3OC(OC4C(CO)OC(Oc5ccc(CC6NC(=O)C(C(C)c7ccccc7)NC(=O)CNC(=O)C(CO)NC(=O)C(CC7CNC(=N)N7C7OC(CO)C(O)C(O)C7O)NC(=O)C(CC7CNC(=N)N7)NC6=O)cc5)C(O)C4O)C(O)C(O)C3O)ccc2c1", "note": "(stereo not drawn) [Example 245, Cyclo[3-(2-iminoimidazolidin-4-yl)alanyl-3-(3-hexopyranosyl-2-iminoimidazolidin-4-yl)-alanylserylglycyl-β-methylphenylalanyl-O-[4-O-[6-O-[(6-methoxy-2-naphthyl)methyl]-hexopyranosyl]hexopyranosyl]tyrosyl]]", "values": [{"measurement": "MIC Enterococcus avium (GC 4558)", "setting": "Enterococcus sp.", "value": 16, "unit": "µg/mL"}, {"measurement": "MIC Enterococcus faecalis (ATCC 29212)", "setting": "Enterococcus sp.", "value": 32, "unit": "µg/mL"}, {"measurement": "MIC Enterococcus faecalis (GC 2242)", "setting": "Enterococcus sp.", "value": 16, "unit": "µg/mL"}, {"measurement": "MIC Enterococcus faecalis (GC 2691)", "setting": "Enterococcus sp.", "value": 32, "unit": "µg/mL"}, {"measurement": "MIC Enterococcus faecalis (GC 3059)", "setting": "Enterococcus sp.", "value": 16, "unit": "µg/mL"}, {"measurement": "MIC Enterococcus faecalis (GC 4552)", "setting": "Enterococcus sp.", "value": 16, "unit": "µg/mL"}, {"measurement": "MIC Enterococcus faecalis (GC 4553)", "setting": "Enterococcus sp.", "value": 16, "unit": "µg/mL"}, {"measurement": "MIC Enterococcus faecalis (GC 4554)", "setting": "Enterococcus sp.", "value": 32, "unit": "µg/mL"}, {"measurement": "MIC Enterococcus faecalis (GC 6189)", "setting": "Enterococcus sp.", "value": 32, "unit": "µg/mL"}, {"measurement": "MIC Enterococcus faecium (GC 2243)", "setting": "Enterococcus sp.", "value": 16, "unit": "µg/mL"}, {"measurement": "MIC Enterococcus faecium (GC 4556)", "setting": "Enterococcus sp.", "value": 16, "unit": "µg/mL"}, {"measurement": "MIC Enterococcus faecium (GC 4557)", "setting": "Enterococcus sp.", "value": 4, "unit": "µg/mL"}, {"measurement": "MIC Enterococcus faecalis (ATCC 29212)", "setting": "Enterococcus sp.; strain ATCC 29212", "value": 32, "unit": "µg/mL"}, {"measurement": "MIC Enterococcus faecium (GC 2243)", "setting": "Enterococcus sp.; strain GC 2243", "value": 16, "unit": "µg/mL"}, {"measurement": "MIC Enterococcus faecalis (GC 4552)", "setting": "Enterococcus sp.; strain GC 4552", "value": 16, "unit": "µg/mL"}, {"measurement": "MIC Enterococcus faecalis (GC 4553)", "setting": "Enterococcus sp.; strain GC 4553", "value": 16, "unit": "µg/mL"}, {"measurement": "MIC Enterococcus faecalis (GC 4554)", "setting": "Enterococcus sp.; strain GC 4554", "value": 32, "unit": "µg/mL"}, {"measurement": "MIC Enterococcus faecium (GC 4556)", "setting": "Enterococcus sp.; strain GC 4556", "value": 16, "unit": "µg/mL"}, {"measurement": "MIC Enterococcus faecium (GC 4557)", "setting": "Enterococcus sp.; strain GC 4557", "value": 4, "unit": "µg/mL"}, {"measurement": "MIC Enterococcus avium (GC 4558)", "setting": "Enterococcus sp.; strain GC 4558", "value": 16, "unit": "µg/mL"}, {"measurement": "MIC Enterococcus faecalis (GC 6189)", "setting": "Enterococcus sp.; strain GC 6189", "value": 32, "unit": "µg/mL"}, {"measurement": "MIC Enterococcus faecalis (GC 2242)", "setting": "Enterococcus sp.; inoculum 5×10^5 CFU/mL, strain GC 2242", "value": 16, "unit": "µg/mL"}, {"measurement": "MIC Enterococcus faecalis (GC 2691)", "setting": "Enterococcus sp.; inoculum 5×10^5 CFU/mL, strain GC 2691", "value": 32, "unit": "µg/mL"}, {"measurement": "MIC Enterococcus faecalis (GC 3059)", "setting": "Enterococcus sp.; inoculum 5×10^5 CFU/mL, strain GC 3059", "value": 16, "unit": "µg/mL"}, {"measurement": "MIC Coagulase Negative Staphylococcus (GC 4547)", "setting": "Staphylococcus sp.", "value": 4, "unit": "µg/mL"}, {"measurement": "MIC Coagulase Negative Staphylococcus (GC 4548)", "setting": "Staphylococcus sp.", "value": 2, "unit": "µg/mL"}, {"measurement": "MIC Coagulase Negative Staphylococcus (GC 4549)", "setting": "Staphylococcus sp.", "value": 1, "unit": "µg/mL"}, {"measurement": "MIC Coagulase Negative Staphylococcus (GC 4551)", "setting": "Staphylococcus sp.", "value": 8, "unit": "µg/mL"}, {"measurement": "MIC Coagulase Negative Staphylococcus (GC 6257)", "setting": "Staphylococcus sp.", "value": 2, "unit": "µg/mL"}, {"measurement": "MIC Staphylococcus aureus (ATCC 29213)", "setting": "Staphylococcus sp.", "value": 4, "unit": "µg/mL"}, {"measurement": "MIC Staphylococcus aureus (GC 1131)", "setting": "Staphylococcus sp.", "value": 8, "unit": "µg/mL"}, {"measurement": "MIC Staphylococcus aureus (GC 3051)", "setting": "Staphylococcus sp.", "value": 4, "unit": "µg/mL"}, {"measurement": "MIC Staphylococcus aureus (GC 3053)", "setting": "Staphylococcus sp.", "value": 4, "unit": "µg/mL"}, {"measurement": "MIC Staphylococcus aureus (GC 4541)", "setting": "Staphylococcus sp.", "value": 4, "unit": "µg/mL"}, {"measurement": "MIC Staphylococcus aureus (GC 4542)", "setting": "Staphylococcus sp.", "value": 4, "unit": "µg/mL"}, {"measurement": "MIC Staphylococcus aureus (GC 4544)", "setting": "Staphylococcus sp.", "value": 8, "unit": "µg/mL"}, {"measurement": "MIC Staphylococcus aureus (GC 4545)", "setting": "Staphylococcus sp.", "value": 4, "unit": "µg/mL"}, {"measurement": "MIC Staphylococcus aureus-SMITH (GC 4543)", "setting": "Staphylococcus sp.", "value": 4, "unit": "µg/mL"}, {"measurement": "MIC Staphylococcus haemolyticus (GC 4546)", "setting": "Staphylococcus sp.", "value": 4, "unit": "µg/mL"}, {"measurement": "MIC Staphylococcus aureus (ATCC 29213)", "setting": "Staphylococcus sp.; strain ATCC 29213", "value": 4, "unit": "µg/mL"}, {"measurement": "MIC Staphylococcus aureus (GC 1131)", "setting": "Staphylococcus sp.; strain GC 1131", "value": 8, "unit": "µg/mL"}, {"measurement": "MIC Staphylococcus aureus (GC 3051)", "setting": "Staphylococcus sp.; strain GC 3051", "value": 4, "unit": "µg/mL"}, {"measurement": "MIC Staphylococcus aureus (GC 3053)", "setting": "Staphylococcus sp.; strain GC 3053", "value": 4, "unit": "µg/mL"}, {"measurement": "MIC Staphylococcus aureus (GC 4541)", "setting": "Staphylococcus sp.; strain GC 4541", "value": 4, "unit": "µg/mL"}, {"measurement": "MIC Staphylococcus aureus (GC 4542)", "setting": "Staphylococcus sp.; strain GC 4542", "value": 4, "unit": "µg/mL"}, {"measurement": "MIC Staphylococcus aureus-SMITH (GC 4543)", "setting": "Staphylococcus sp.; strain GC 4543", "value": 4, "unit": "µg/mL"}, {"measurement": "MIC Staphylococcus aureus (GC 4544)", "setting": "Staphylococcus sp.; strain GC 4544", "value": 8, "unit": "µg/mL"}, {"measurement": "MIC Staphylococcus aureus (GC 4545)", "setting": "Staphylococcus sp.; strain GC 4545", "value": 4, "unit": "µg/mL"}, {"measurement": "MIC Staphylococcus haemolyticus (GC 4546)", "setting": "Staphylococcus sp.; strain GC 4546", "value": 4, "unit": "µg/mL"}, {"measurement": "MIC Coagulase Negative Staphylococcus (GC 4547)", "setting": "Staphylococcus sp.; strain GC 4547", "value": 4, "unit": "µg/mL"}, {"measurement": "MIC Coagulase Negative Staphylococcus (GC 4548)", "setting": "Staphylococcus sp.; strain GC 4548", "value": 2, "unit": "µg/mL"}, {"measurement": "MIC Coagulase Negative Staphylococcus (GC 4549)", "setting": "Staphylococcus sp.; strain GC 4549", "value": 1, "unit": "µg/mL"}, {"measurement": "MIC Coagulase Negative Staphylococcus (GC 4551)", "setting": "Staphylococcus sp.; strain GC 4551", "value": 8, "unit": "µg/mL"}, {"measurement": "MIC Coagulase Negative Staphylococcus (GC 6257)", "setting": "Staphylococcus sp.; strain GC 6257", "value": 2, "unit": "µg/mL"}, {"measurement": "MIC Streptococcus agalactiae (GC 4564)", "setting": "Streptococcus sp.", "value": 4, "unit": "µg/mL"}, {"measurement": "MIC Streptococcus pneumoniae (ATCC 6301)", "setting": "Streptococcus sp.", "value": 2, "unit": "µg/mL"}, {"measurement": "MIC Streptococcus pneumoniae (GC 1894)", "setting": "Streptococcus sp.", "value": 1, "unit": "µg/mL"}, {"measurement": "MIC Streptococcus pneumoniae (GC 4565)", "setting": "Streptococcus sp.", "value": 4, "unit": "µg/mL"}, {"measurement": "MIC Streptococcus pyogenes (GC 4563)", "setting": "Streptococcus sp.", "value": 4, "unit": "µg/mL"}, {"measurement": "MIC Streptococcus pneumoniae (ATCC 6301)", "setting": "Streptococcus sp.; inoculum 5×10^5 CFU/mL, strain ATCC 6301", "value": 2, "unit": "µg/mL"}, {"measurement": "MIC Streptococcus pneumoniae (GC 1894)", "setting": "Streptococcus sp.; inoculum 5×10^5 CFU/mL, strain GC 1894", "value": 1, "unit": "µg/mL"}, {"measurement": "MIC Streptococcus pyogenes (GC 4563)", "setting": "Streptococcus sp.; inoculum 5×10^5 CFU/mL, strain GC 4563", "value": 4, "unit": "µg/mL"}, {"measurement": "MIC Streptococcus agalactiae (GC 4564)", "setting": "Streptococcus sp.; inoculum 5×10^5 CFU/mL, strain GC 4564", "value": 4, "unit": "µg/mL"}, {"measurement": "MIC Streptococcus pneumoniae (GC 4565)", "setting": "Streptococcus sp.; inoculum 5×10^5 CFU/mL, strain GC 4565", "value": 4, "unit": "µg/mL"}, {"measurement": "median effective dose (ED50), Staphylococcus aureus-SMITH (GC 4543)", "setting": "[1]", "value": 4, "unit": "mg/kg"}, {"measurement": "Clinical Chemistry (Day 10) % of Control, BUN", "setting": "[2]", "value": "+160%"}, {"measurement": "Clinical Chemistry (Day 10) % of Control, Creatinine", "setting": "[2]", "value": "+138%"}, {"measurement": "Anatomical Pathology (Day 10), Heart", "setting": "[3]", "value": 0}, {"measurement": "Anatomical Pathology (Day 10), Kidney", "setting": "[3]", "value": "+++"}, {"measurement": "MIC Escherichia coli (ATCC 25922)", "setting": "Escherichia coli", "value": 64, "unit": "µg/mL"}, {"measurement": "MIC Escherichia coli (GC 4559)", "setting": "Escherichia coli", "value": 32, "unit": "µg/mL"}, {"measurement": "MIC Escherichia coli (GC 4560)", "setting": "Escherichia coli", "value": 4, "unit": "µg/mL"}]}]}
